# Measured values as given in patent US20060281071A1, “Stearoyl-CoA desaturase assay” (priority 2005, published 2006).
# Where “and” joins values, the source holds several entries; their conditions need not be identical. Equal values may be shown once. Read-outs that look alike come from different tables or passages of the source.
# Legend:
# mSCD3 = target: T1, mSCD3 (Mus musculus, UniProt Q99PL7, V119A); test: Conversion of saturated fatty acids to Δ9 monounsaturated fatty acids in ole1 yeast L8-14C expressing mSCD3 (GLC); type: cell-based; parameters: Cloning of the full-length human and mouse SCD cDNAs: The full coding region of human SCDs; expressed in transfected cells; host or cells: Saccharomyces cerevisiae L8-14C (ole1 disruptant), vector p426GPD
# T1 sequence (Q99PL7 1-359 V119A): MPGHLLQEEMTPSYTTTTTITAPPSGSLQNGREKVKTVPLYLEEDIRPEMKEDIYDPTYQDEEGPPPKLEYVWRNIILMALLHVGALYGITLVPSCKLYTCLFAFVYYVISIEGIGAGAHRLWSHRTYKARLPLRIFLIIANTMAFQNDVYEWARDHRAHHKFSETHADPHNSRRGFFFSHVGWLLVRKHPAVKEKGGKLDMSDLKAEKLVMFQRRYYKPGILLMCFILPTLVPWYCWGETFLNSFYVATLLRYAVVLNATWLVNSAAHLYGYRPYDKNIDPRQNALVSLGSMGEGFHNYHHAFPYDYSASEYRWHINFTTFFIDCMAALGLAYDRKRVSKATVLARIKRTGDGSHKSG
# hSCD5 = target: T2, hSCD5 (Homo sapiens, UniProt Q86SK9); test: Conversion of saturated fatty acids to Δ9 monounsaturated fatty acids in ole1 yeast L8-14C expressing hSCD5 (GLC); type: cell-based; parameters: Cloning of the full-length human and mouse SCD cDNAs: The full coding region of human SCDs; expressed in transfected cells; host or cells: Saccharomyces cerevisiae L8-14C (ole1 disruptant), vector p426GPD; settings: for % conversion of fatty acid to Δ9 monounsaturated fatty acid: endogenous fatty acid, L8-14C transformant, YPD lacking unsaturated fatty acids, 3 days
# T2 sequence (Q86SK9 1-330): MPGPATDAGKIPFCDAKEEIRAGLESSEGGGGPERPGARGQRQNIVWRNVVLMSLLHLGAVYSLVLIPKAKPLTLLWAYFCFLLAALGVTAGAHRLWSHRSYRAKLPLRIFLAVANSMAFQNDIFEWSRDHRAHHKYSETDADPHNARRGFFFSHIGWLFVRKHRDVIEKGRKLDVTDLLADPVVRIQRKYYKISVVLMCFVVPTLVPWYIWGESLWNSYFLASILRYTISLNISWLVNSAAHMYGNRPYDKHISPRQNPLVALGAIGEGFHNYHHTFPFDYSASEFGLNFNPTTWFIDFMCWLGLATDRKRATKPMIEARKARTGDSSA
# Excerpt: (§1) Functional Analysis: The p426GPD constructs harboring either human or mouse SCDs were transformed into Saccharomyces cerevisiae strain L8-14C (provided by Professor Charles Martin, Division of Life Sciences, Department of Cell Biology and Neuroscience, Rutgers University, Nelson Laboratories), which contains a disruption of the yeast Δ9-desaturase gene ole1 and requires unsaturated fatty acids for growth (Stukey, J. E. et al. (1990) J Biol Chem 265, 20144-20149), by using a Lithium acetate standard methods (Elble, R. (1992) Biotechniques 13, 18-20). The transformed yeast cells were plated onto a synthetic dextrose medium containing 1% tergitol NP-40, 0.5 mM oleic acid, and 0.5 mM palmitoleic acid but lacking uracil. To test the genetic complementation of the mutant yeast strain, transformed yeast cells were plated onto YPD (Yeast Extract/Peptone/Dextrose) medium lacking unsaturated fatty acids. Plates were incubated at 30° C. for 3 days.
# (§2) Fatty acid analysis: Yeast cells were grown in liquid YPD medium lacking unsaturated fatty acids for 3 days. Cells were pelleted and washed twice with water, followed by suspension in 0.5 ml of 2M NaOH in methanol. The mixture was then heated to 80° C. for 1 h and acidified with formic acid. Fatty acids were extracted according to Bligh & Dyer's method and trans-methylated with 1 ml of 14% BF3 in methanol (Sigma). The resulting fatty acid methyl esters were extracted with hexane and analyzed by gas-liquid chromatography (GLC) (Miyazaki, M. et al. (2001) J Biol Chem 276, 39455-39461; and Elble, R. (1992) Biotechniques 13, 18-20). The double bond positions of the monounsaturated fatty acid pyrrolidide derivatives were analyzed by tandem GC-MS as described in Miyazaki, M. et al. (2002) J Lipid Res 43, 2146-2154, incorporated by reference in its entirety. Exogenous saturated fatty acids (0.2 mM) were added into YPD in presence of 1% Tergitol NP-40 (Sigma).
# mSCD1 = target: T3, mSCD1 (Mus musculus, UniProt P13516); test: Conversion of saturated fatty acids to Δ9 monounsaturated fatty acids in ole1 yeast L8-14C expressing mSCD1 (GLC); type: cell-based; parameters: Cloning of the full-length human and mouse SCD cDNAs: The full coding region of human SCDs; expressed in transfected cells; host or cells: Saccharomyces cerevisiae L8-14C (ole1 disruptant), vector p426GPD; settings: for conversion of exogenous saturated fatty acid to Δ9 monounsaturated fatty acid: exogenous fatty acid 0.2 mM, 1% tergitol NP-40, yeast cultured 2 days (FIG. 2); for % conversion of fatty acid to Δ9 monounsaturated fatty acid: endogenous fatty acid, L8-14C transformant, YPD lacking unsaturated fatty acids, 3 days
# T3 sequence (P13516 1-355): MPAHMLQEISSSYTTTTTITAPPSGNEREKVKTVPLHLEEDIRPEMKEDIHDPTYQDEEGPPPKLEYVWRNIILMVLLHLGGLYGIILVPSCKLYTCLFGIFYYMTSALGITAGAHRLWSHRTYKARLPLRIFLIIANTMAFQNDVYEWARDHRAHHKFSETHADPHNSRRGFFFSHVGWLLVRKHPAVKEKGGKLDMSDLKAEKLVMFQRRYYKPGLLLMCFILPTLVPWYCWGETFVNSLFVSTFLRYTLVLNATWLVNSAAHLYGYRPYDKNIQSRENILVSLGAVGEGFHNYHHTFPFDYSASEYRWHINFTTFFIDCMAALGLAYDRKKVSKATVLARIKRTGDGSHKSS
# mSCD2 = target: T4, mSCD2 (Mus musculus, UniProt P13011); test: Conversion of saturated fatty acids to Δ9 monounsaturated fatty acids in ole1 yeast L8-14C expressing mSCD2 (GLC); type: cell-based; parameters: Cloning of the full-length human and mouse SCD cDNAs: The full coding region of human SCDs; expressed in transfected cells; host or cells: Saccharomyces cerevisiae L8-14C (ole1 disruptant), vector p426GPD; settings: for conversion of exogenous saturated fatty acid to Δ9 monounsaturated fatty acid: exogenous fatty acid 0.2 mM, 1% tergitol NP-40, yeast cultured 2 days (FIG. 2); for % conversion of fatty acid to Δ9 monounsaturated fatty acid: endogenous fatty acid, L8-14C transformant, YPD lacking unsaturated fatty acids, 3 days
# T4 sequence (P13011 1-358): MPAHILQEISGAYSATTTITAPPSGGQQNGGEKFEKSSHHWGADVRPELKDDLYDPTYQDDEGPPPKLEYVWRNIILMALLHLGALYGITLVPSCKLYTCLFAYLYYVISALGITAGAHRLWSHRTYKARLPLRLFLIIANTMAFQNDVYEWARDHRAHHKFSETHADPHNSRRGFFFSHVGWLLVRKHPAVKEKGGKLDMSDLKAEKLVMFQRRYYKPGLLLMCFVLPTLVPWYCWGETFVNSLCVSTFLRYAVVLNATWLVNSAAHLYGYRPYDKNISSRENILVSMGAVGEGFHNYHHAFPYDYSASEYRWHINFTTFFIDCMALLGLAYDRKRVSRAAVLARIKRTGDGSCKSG
# hSCD1 = target: T5, hSCD1 (Homo sapiens, UniProt O00767); test: Conversion of saturated fatty acids to Δ9 monounsaturated fatty acids in ole1 yeast L8-14C expressing hSCD1 (GLC); type: cell-based; parameters: Cloning of the full-length human and mouse SCD cDNAs: The full coding region of human SCDs; expressed in transfected cells; host or cells: Saccharomyces cerevisiae L8-14C (ole1 disruptant), vector p426GPD; settings: for conversion of exogenous saturated fatty acid to Δ9 monounsaturated fatty acid: exogenous fatty acid 0.2 mM, 1% tergitol NP-40, yeast cultured 2 days (FIG. 2); for % conversion of fatty acid to Δ9 monounsaturated fatty acid: endogenous fatty acid, L8-14C transformant, YPD lacking unsaturated fatty acids, 3 days
# T5 sequence (O00767 1-359): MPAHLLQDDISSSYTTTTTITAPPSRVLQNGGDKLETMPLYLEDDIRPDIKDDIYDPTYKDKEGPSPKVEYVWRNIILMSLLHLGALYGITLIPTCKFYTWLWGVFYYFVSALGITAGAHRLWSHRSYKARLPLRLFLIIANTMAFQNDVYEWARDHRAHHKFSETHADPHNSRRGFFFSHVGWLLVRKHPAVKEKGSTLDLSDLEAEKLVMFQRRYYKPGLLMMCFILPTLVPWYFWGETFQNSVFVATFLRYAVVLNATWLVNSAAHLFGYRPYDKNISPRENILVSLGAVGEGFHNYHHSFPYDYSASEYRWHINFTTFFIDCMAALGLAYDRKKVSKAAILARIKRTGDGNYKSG
# mSCD4 = test: Conversion of saturated fatty acids to Δ9 monounsaturated fatty acids in ole1 yeast L8-14C expressing mSCD4 (GLC); type: cell-based, mouse; settings: for conversion of exogenous saturated fatty acid to Δ9 monounsaturated fatty acid: exogenous fatty acid 0.2 mM, 1% tergitol NP-40, yeast cultured 2 days (FIG. 2); for % conversion of fatty acid to Δ9 monounsaturated fatty acid: endogenous fatty acid, L8-14C transformant, YPD lacking unsaturated fatty acids, 3 days
# Excerpt: as §1
# as §2, with “Cells” for “Fatty acid analysis: Yeast cells were grown in liquid YPD medium lacking unsaturated fatty acids for 3 days. Cells”
# [1] = exogenous fatty acid 0.2 mM, 1% tergitol NP-40, yeast cultured 2 days (FIG. 2)
# [2] = yeast transformant, endogenous fatty acids
Structure (SMILES),conversion of exogenous saturated fatty acid to Δ9 monounsaturated fatty acid (mSCD1),conversion of exogenous saturated fatty acid to Δ9 monounsaturated fatty acid (mSCD2),conversion of exogenous saturated fatty acid to Δ9 monounsaturated fatty acid (hSCD1),conversion of exogenous saturated fatty acid to Δ9 monounsaturated fatty acid (hSCD5; [1]),conversion of exogenous saturated fatty acid to Δ9 monounsaturated fatty acid (mSCD4),other results
"CCCCCCCCCCCC(=O)O [12:0, lauric acid]",,,,,,conversion of exogenous saturated fatty acid to Δ9 monounsaturated fatty acid (mSCD3): 14%; conversion of exogenous saturated fatty acid to Δ9 monounsaturated fatty acid (hSCD5): did not desaturate
"CCCCCCCCCCCCC(=O)O [13:0, tridecanoic acid]",13%,14%,9%,did not desaturate,,
"CCCCCCCCCCCCCC(=O)O [14:0, myristic acid]",11%,14%,18%,less than 5%,2.9%,
CCCCCCCCCCCCCCCC(=O)O [16:0],,,,,,% conversion of fatty acid to Δ9 monounsaturated fatty acid (mSCD4): 9.7%; % conversion of fatty acid to Δ9 monounsaturated fatty acid (mSCD1): 36.4%; % conversion of fatty acid to Δ9 monounsaturated fatty acid (mSCD2): 51.4%; % conversion of fatty acid to Δ9 monounsaturated fatty acid (hSCD1): 43.8%; % conversion of fatty acid to Δ9 monounsaturated fatty acid (hSCD5): 19.9%
"CCCCCCCCCCCCCCCCC(=O)O [17:0, heptadecanoic acid]",43%,31%,35%,31%,5.7%,
CCCCCCCCCCCCCCCCCC(=O)O [18:0],,,,,,% conversion of fatty acid to Δ9 monounsaturated fatty acid (mSCD4): 16.8%; % conversion of fatty acid to Δ9 monounsaturated fatty acid (mSCD1): 85% and 84.8%; % conversion of fatty acid to Δ9 monounsaturated fatty acid (mSCD2): 77% and 77.3%; % conversion of fatty acid to Δ9 monounsaturated fatty acid (hSCD1): 75.0%; conversion towards 18:0 relative to 16:0 (hSCD1; [2]): 1.7 fold; % conversion of fatty acid to Δ9 monounsaturated fatty acid (hSCD5): 86.6%; conversion of 18:0 to 18:1Δ9 relative to that of 16:0 (hSCD5; [2]): more than 4 fold
"CCCCCCCCCCCCCCCCCCCC(=O)O [C20:0, eicosanoic acid]",None of Δ9-desaturase was able to utilize,None of Δ9-desaturase was able to utilize,None of Δ9-desaturase was able to utilize,None of Δ9-desaturase was able to utilize,None of Δ9-desaturase was able to utilize,
